Test results from PMC10514136, “Peptide-conjugated antimiRs improve myotonic dystrophy type 1 phenotypes by promoting endogenous MBNL1 expression” (Molecular Therapy. Nucleic Acids, 2023).

Key:
Assay type in all cases: in vivo, mouse
Mbnl1 mRNA = experiment: Mbnl1 transcript levels in muscle by qRT-PCR; settings: HSALR mice, 9.2 mg/kg (mean) i.v. every 2 weeks x3, day 45; quadriceps, vs PBS-treated HSALR
Method: Total RNA from murine gastrocnemius and quadriceps muscle was isolated using the miRNeasy Mini Kit (QIAGEN, Hilden, Germany) according to the manufacturer's instructions. One microgram of RNA was digested with DNase I (Invitrogen, Carlsbad, CA) and reverse transcribed with SuperScript II (Invitrogen) using random hexanucleotides. For subsequent PCR reactions, 20 ng of cDNA was used with GoTaq polymerase (Promega). Specific primers were used to analyze the alternative splicing of Nfix, Atp2a1, and Clcn1 in mouse samples (both muscles). Gapdh levels established the endogenous reference levels using 0.2 ng of cDNA. […] PSR index was defined as value%SI minus X %DSI , divided by […] (SI, splicing inclusion of each sample; DSI, disease splicing inclusion; HSI, healthy splicing inclusion). Overall, PSR indicates the amount in both muscles analyzed. […] Commercial TaqMan probes (QIAGEN) were used for mouse (Mbnl1 and Mbnl2; FAM-labeled probes) and reference (GAPDH; MAX-labeled probe) genes. Results were normalized to Gapdh endogenous gene expression. Expression levels were measured using a QuantStudio 5 Real-Time PCR System (Applied Biosystems, Foster City, CA). […] Mouse handling and experimental procedures followed the European law regarding laboratory animal care and experimentation (2003/65/C.E.) and were approved by Conselleria de Agricultura, […] […]

miR-23b = experiment: Functional miR-23b levels in gastrocnemius and quadriceps by qRT-PCR; settings: HSALR mice, 9.2 mg/kg (mean) i.v. every 2 weeks x3, day 45, vs PBS-treated HSALR
Method: (§1) miRNA expression in muscle tissues was quantified using specific miRCURY-locked nucleic acid microRNA PCR primers (QIAGEN) according to the manufacturer's instructions. […] Expression levels were measured using a QuantStudio 5 Real-Time PCR System (Applied Biosystems, Foster City, CA). […] Mouse handling and experimental procedures followed the European law regarding laboratory animal care and experimentation (2003/65/C.E.) and were approved by Conselleria de Agricultura, […] (reference no. A1539961490857). We used homozygous transgenic HSA^LR (line 20 b) mice,[90] which were kindly provided by Dr Thornton (Rochester, NY) and were housed and bred in our animal facility. […] The mice were randomly allocated to the different treatments as follows: in each cage, each mouse was ear-marked as it was taken out, and each mouse was then assigned to a different treatment. Animals were injected biweekly intravenously with 150 μL of 1× PBS vehicle (controls; […] Mice were sacrificed 45 days after the first injection and the tissues of interest were frozen in liquid nitrogen for the molecular and histological assays. All the mice used in this study ranged from 5 to 5.5 months of age and all were males.

miR-218 = experiment: Functional miR-218 levels in gastrocnemius and quadriceps by qRT-PCR; settings: HSALR mice, 9.2 mg/kg (mean) i.v. every 2 weeks x3, day 45, vs PBS-treated HSALR
Method: as §1

HSALR mice = experiment: Histology, percentage of muscle fibers with central nuclei; settings: 9.2 mg/kg (mean) i.v. every 2 weeks x3, day 45
Excerpt: Mouse handling and experimental procedures followed the European law regarding laboratory animal care and experimentation (2003/65/C.E.) and were approved by Conselleria de Agricultura, Generalitat Valenciana (reference no. A1539961490857). We used homozygous transgenic HSA^LR (line 20 b) mice,[90] which were kindly provided by Dr Thornton (Rochester, NY) and were housed and bred in our animal facility. Experimental groups were FVB as healthy control and HSA^LR treated with a scrambled ON (SC) and PBS as negative controls, and HSA^LR mice treated with all six experimental CPP-PMOs. The mice were randomly allocated to the different treatments as follows: in each cage, each mouse was ear-marked as it was taken out, and each mouse was then assigned to a different treatment. […]
Frozen 15-μm sections of mouse gastrocnemius and quadriceps muscles were stained with hematoxylin and eosin and mounted with DPX Mountant for histology (Sigma) according to standard procedures. […] The percentage of fibers containing central nuclei was quantified in a total of 200 fibers in each mouse.

| Substance | Mbnl1 mRNA levels (Mbnl1 mRNA) | levels of functional miR-23b (miR-23b) | levels of functional miR-218 (miR-218) | muscle fibers with central nuclei vs PBS-injected mice (HSALR mice) |
| --- | --- | --- | --- | --- |
| 6aKC-23b (antisense GGUAAUCCCUGGCAAUGUGAU; all phosphorodiamidate morpholino (PMO), T or U not given here; Pip6aKC peptide conjugated) | significant increases in quadriceps |  |  |  |
| TCTTACCTCAGTTACAATTTA-Pip9b2 [Scramble, reference compound] |  | did not reduce functional levels | did not reduce functional levels | did not differ significantly from PBS-injected ones |
